From US5929097A, “Preparation and use of ortho-sulfonamido aryl hydroxamic acids as matrix metalloproteinase and tace inhibitors” (American Cyanamid Company, priority 1997, dated 1999)
Read-outs that look alike come from different tables or passages of the source.

How the values were obtained:
MMP-9 = MMP-9 (Homo sapiens, UniProt P14780); assay: biochemical
Procedure: (§1) The enzyme activity is measured by the rate of the color increase. The thiopeptide substrate is made up fresh as a 20 mM stock in 100% DMSO and the DTNB is dissolved in 100% DMSO as a 100 mM stock and stored in the dark at room temperature. Both the substrate and DTNB are diluted together to 1 mM with substrate buffer (50 mM HEPES pH 7.5, 5 mM CaCl2) before use. The stock of enzyme is diluted with assay buffer (50 mM HEPES, pH 7.5, 5 mM CaCl2, 0.02% Brij) to the desired final concentration.
(§2) Alternatively, a fluorescent peptide substrate is used. In this assay, the peptide substrate contains a fluorescent group and a quenching group. Upon cleavage of the substrate by an MMP, the fluorescence that is generated is quantitated on the fluorescence plate reader. The assay is run in HCBC assay buffer (50 mM HEPES, pH 7.0, 5 mM Ca^+2, 0.02% Brij, 0.5% Cysteine), with human recombinant MMP-1, MMP-9, or MMP-13. The substrate is dissolved in methanol and stored frozen in 1 mM aliquots. For the assay, substrate and enzymes are diluted in HCBC buffer to the desired concentrations. Compounds are added to the 96 well plate containing enzyme and the reaction is started by the addition of substrate.
(§3) For either the thiopeptide or fluorescent peptide assays, the slope of the line is calculated and represents the reaction rate. The linearity of the reaction rate is confirmed (r^2 >0.85). The mean (x±sem) of the control rate is calculated and compared for statistical significance (p<0.05) with drug-treated rates using Dunnett's multiple comparison test.

MMP9 = assay: In vivo MMP inhibition (implanted dialysis tubing containing MMP enzyme); set-up: species or system rat (Sprague-Dawley) or mouse (CD-1)
Procedure: Drugs are administered PO, IP, SC or IV through a canula in the jugular vein. […] Contents of the dialysis tubing is collected and enzyme activity assayed.
Enzyme reaction rates for each dialysis tube are calculated. Tubes from at least 3 different animals are used to calculate the meani sem. Statistical significance (p<0.05) of vehicle-treated animals versus drug-treated animals is determined by analysis of variance.

MMP-13 = MMP-13 (Homo sapiens, UniProt P45452); assay: MMP-13 inhibition (thiopeptide/DTNB or fluorescent peptide substrate); format: biochemical
Procedure: as §1
Alternatively, a fluorescent peptide substrate is used. In this assay, the peptide substrate contains a fluorescent group and a quenching group. Upon cleavage of the substrate by an MMP, the fluorescence that is generated is quantitated on the fluorescence plate reader. The assay is run in HCBC assay buffer (50 mM HEPES, pH 7.0, 5 mM Ca^+2, 0.02% Brij, 0.5% Cysteine), with human recombinant MMP-1, MMP-9, or MMP-13. The substrate is dissolved in methanol and stored frozen in 1 mM aliquots. For the assay, substrate and enzymes are diluted in HCBC buffer to the desired concentrations. […]
For either the thiopeptide or fluorescent peptide assays, the slope of the line is calculated and represents the reaction rate. […] The mean (x±sem) of the control rate is calculated and compared for statistical significance (p<0.05) with drug-treated rates using Dunnett's multiple comparison test.

TACE = molecular target: T1, TACE (Homo sapiens, UniProt P78536); assay: TACE inhibition (fluorescent peptidyl substrate); format: biochemical
T1 construct: purchased Immunex
T1 sequence (P78536 215-824): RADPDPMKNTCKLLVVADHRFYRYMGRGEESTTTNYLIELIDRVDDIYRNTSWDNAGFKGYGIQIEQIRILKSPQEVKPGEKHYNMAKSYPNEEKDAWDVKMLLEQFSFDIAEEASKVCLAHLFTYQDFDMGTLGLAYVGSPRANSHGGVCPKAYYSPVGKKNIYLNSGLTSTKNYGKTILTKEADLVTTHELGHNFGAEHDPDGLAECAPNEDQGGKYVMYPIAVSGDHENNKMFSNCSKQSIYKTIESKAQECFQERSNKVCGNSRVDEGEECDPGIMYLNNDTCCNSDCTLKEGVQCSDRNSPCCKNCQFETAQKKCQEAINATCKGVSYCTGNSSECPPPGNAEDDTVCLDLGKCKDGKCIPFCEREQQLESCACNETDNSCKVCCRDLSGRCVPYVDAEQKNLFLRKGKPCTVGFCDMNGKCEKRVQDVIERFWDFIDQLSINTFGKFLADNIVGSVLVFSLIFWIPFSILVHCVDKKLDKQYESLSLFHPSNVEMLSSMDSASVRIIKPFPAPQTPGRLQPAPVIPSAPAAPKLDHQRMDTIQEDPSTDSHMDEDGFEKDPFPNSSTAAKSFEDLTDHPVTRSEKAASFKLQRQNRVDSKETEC
Procedure: Procedure for Measuring TACE Inhibition
Using 96-well black microtiter plates, each well receives a solution composed of 10 μL TACE (Immunex, final concentration 1 μg/mL), 70 μL Tris buffer, pH 7.4 containing 10% glycerol (final concentration 10 mM), and 10 μL of test compound solution in DMSO (final concentration 1 μM, DMSO concentration <1%) and incubated for 10 minutes at room temperature.
The reaction is read (excitation 340 nm, emission 420 nm) for 10 min. and the increase in fluorescence over time is plotted as a linear line. The slope of the line is calculated and represents the reaction rate.
The linearity of the reaction rate is confined (r^2 >0.85). The mean (x±sem) of the control rate is calculated and compared for statistical significance (p<0.05) with drug-treated rates using Dunnert's multiple comparison test.

MMP-1 = molecular target: T2, MMP-1 (Homo sapiens, UniProt P03956); assay: MMP-1 inhibition (thiopeptide/DTNB or fluorescent peptide substrate); format: biochemical
T2 sequence (P03956 100-469): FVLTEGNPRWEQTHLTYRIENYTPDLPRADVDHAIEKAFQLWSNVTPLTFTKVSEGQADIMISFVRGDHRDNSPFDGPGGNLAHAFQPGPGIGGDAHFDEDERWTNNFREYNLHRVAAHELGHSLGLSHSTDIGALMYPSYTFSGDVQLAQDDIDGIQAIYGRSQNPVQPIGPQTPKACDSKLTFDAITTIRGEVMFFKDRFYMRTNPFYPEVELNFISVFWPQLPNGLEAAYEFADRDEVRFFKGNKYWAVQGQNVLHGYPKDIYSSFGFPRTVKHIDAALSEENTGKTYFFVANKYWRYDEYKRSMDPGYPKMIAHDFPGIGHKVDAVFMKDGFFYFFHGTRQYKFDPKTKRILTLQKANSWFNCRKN
Procedure: as §1, §2, §3

Sequence of MMP-9 (P14780 94-707): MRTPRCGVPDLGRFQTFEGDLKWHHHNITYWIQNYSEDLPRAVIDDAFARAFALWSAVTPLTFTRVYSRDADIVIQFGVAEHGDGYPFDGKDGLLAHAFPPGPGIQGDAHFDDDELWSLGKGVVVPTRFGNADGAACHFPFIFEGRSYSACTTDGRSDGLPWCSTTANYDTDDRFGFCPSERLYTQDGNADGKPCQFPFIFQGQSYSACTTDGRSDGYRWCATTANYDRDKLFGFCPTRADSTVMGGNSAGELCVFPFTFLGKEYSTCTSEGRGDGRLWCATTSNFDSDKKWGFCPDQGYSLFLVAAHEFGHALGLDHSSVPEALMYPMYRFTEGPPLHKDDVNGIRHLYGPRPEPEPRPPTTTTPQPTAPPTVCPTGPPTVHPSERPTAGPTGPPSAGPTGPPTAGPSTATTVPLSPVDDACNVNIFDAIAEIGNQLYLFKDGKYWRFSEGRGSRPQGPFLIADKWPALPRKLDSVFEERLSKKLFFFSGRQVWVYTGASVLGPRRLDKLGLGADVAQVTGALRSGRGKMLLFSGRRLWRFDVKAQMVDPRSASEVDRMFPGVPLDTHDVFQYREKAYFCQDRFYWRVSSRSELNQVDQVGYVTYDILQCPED

| SMILES | IC50 (MMP-9) [µM] | in-vivo MMP % inhibition vs. MMP9 (MMP9; 100 mg/kg, ip) [%] | IC50 (MMP-1) [µM] | also measured |
| --- | --- | --- | --- | --- |
| COc1ccc(S(=O)(=O)N(Cc2cccnc2)c2c(OCc3cccnc3)cccc2C(=O)NO)cc1 [Example 61] | 0.034 |  |  | in-vivo MMP % inhibition vs. MMP9 (MMP9; 20 mg/kg, po): 46%; in-vivo MMP % inhibition vs. MMP9 (MMP9; 50 mg/kg, po): 59%; IC50 (MMP-13): 0.033 µM; IC50 (TACE): 0.289 µM |
| COc1ccc(S(=O)(=O)N(Cc2ccccc2)c2c(C)cc(Br)cc2C(=O)NO)cc1 [Example 25, 2-[Benzyl-(4-methoxy-benzenesulfonyl)-amino]-5-bromo-N-hydroxy-3-methyl-benzamide] |  | 32 |  |  |
| COc1ccc(S(=O)(=O)N(Cc2ccccc2)c2c(OCc3ccccc3)cccc2C(=O)NO)cc1 [Example 34, 2-[Benzyl-(4-methoxy-benzenesulfonyl)-amino]-3-benzyloxy-N-hydroxy-benzamide] |  | 31.6 |  |  |
| COc1ccc(S(=O)(=O)N(Cc2cccnc2)c2c(C)cc(Br)cc2C(=O)NO)cc1 [Example 91, 5-Bromo-N-hydroxy-2-[(4-methoxy-benzenesulfonyl)-pyridin-3-ylmethyl-amino]-3-methyl-benzamide] |  |  |  | in-vivo MMP % inhibition vs. MMP9 (MMP9; 100 mg/kg, po): 55% |
| Cc1cccc(C(=O)NO)c1N(C)S(=O)(=O)c1ccc(Oc2ccncc2)cc1 [Example 417] | 0.0068 |  | 3.25 |  |
| COc1ccc(S(=O)(=O)N(Cc2cccnc2)c2c(C(=O)NO)cc(C)cc2-c2cccs2)cc1 [Example 145, N-Hydroxy-2-[(4-methoxy-benzenesulfonyl)-pyridin-3-ylmethyl-amino]-5-methyl-3-thiophen-2-yl-benzamide] | 0.007 |  | 0.055 | IC50 (MMP-13; read-out: MMP-13 IC50): 0.003 µM; IC50 (TACE; read-out: TACE IC50): 0.158 µM |
| CCCCCCCCN(c1c(CN2CCN(C)CC2)cccc1C(=O)NO)S(=O)(=O)c1ccc(OC)cc1 [Example 325, N-Hydroxy-2-[(4-methoxy-benzenesulfonyl)-octyl-amino] -3-(4-methyl-piperazin-1-ylmethyl)-benzamide] |  |  | 0.02 |  |
| COc1ccc(S(=O)(=O)N(Cc2ccccc2)c2c(Cl)cccc2C(=O)NO)cc1 [Example 24, 2-[Benzyl-(4-methoxy-benzenesulfonyl)-amino]-3-chloro-N-hydroxy-benzamide] |  |  |  | IC50 (TACE; read-out: TACE IC50): 1 µM |
| CCCN(c1c(C)cc(C)cc1C(=O)NO)S(=O)(=O)c1ccc(OC)cc1 [Example 117, N-Hydroxy-2-[(4-methoxy-benzenesulfonyl)-propyl-amino]-3,5-dimethyl-benzamide] |  | 28.3 |  |  |
